According to PMC6326523, “A high-throughput screen to identify novel small molecule inhibitors of the Werner Syndrome Helicase-Nuclease (WRN)” (PLoS ONE, 2019):

Experiments:
Format in all cases: biochemical
full-length WRN helicase = molecular target: T1, full-length WRN helicase (Homo sapiens, UniProt Q14191); test: Radiometric helicase inhibitor reversibility assay (100-fold dilution); set-up: key to Reversibility: (-) = irreversible; (+) = minimally reversible; (++) = partially reversible; (+++) = reversible; conditions: for Reversibility: WRN 100 nM preincubated at 10-fold IC50, diluted 100-fold, unwinding 0-16 min; for Reversibility of inhibition (in words): full-length WRN
T1 construct: Full length recombinant WRN [18], BLM [19], and FANCJ [20] proteins were purified from insect cells; made in house; host or cells: insect cells
Experimental: WRN (full length, 100 nM concentration) was incubated with each small molecule inhibitor at a concentration 10-fold higher than the IC50 for that inhibitor, in a 10 μL reaction at room temperature. 1.5 μL of this reaction was added to 148.5 μL of reaction salts with 2 mM ATP, 0.5 nM FORKR reducing the full length WRN concentration to 1 nM and the drug concentration to 10-fold less than its IC50. Reactions were placed at 37°C and 20 μL of reaction were removed at specific intervals (0–16 min) and quenched with 20 μL of 2X STOP dye containing EDTA, glycerol, bromphenol blue and xylene cyanol. Samples were electrophoresed for 1.5 hr at 200 V on a 12% non-denaturing PAGE gel in 1X TBE Buffer.
Eighteen compounds were selected based on potency of inhibition in both the screening and radiometric assays, and exclusion of compounds with undesired chemical features. For each compound, we performed titrations over a wide range of concentrations with a fixed concentration of full-length WRN protein (1 nM), and quantitated unwinding as a percentage of full-length WRN unwinding of the FORKR DNA substrate (0.5 nM) in the absence of compound (Fig 6A and 6B, S3 Fig). […] In addition to determining an IC50 value for each compound, we also conducted helicase assays to determine the reversibility of inhibition by each compound tested. Details of the assay can be found in the Materials and Methods section, but briefly 100 nM WRN was incubated with each compound at a concentration 10-fold higher than its IC50 value. The reaction was diluted 100-fold with the addition of DNA substrate (0.5 nM final concentration) and ATP (2 mM final concentration) and unwinding was measured (Fig 7A–7D, S4 Fig). Inhibition was either classified as reversible, partially reversible, minimally reversible, or irreversible based on the ability of helicase activity to recover after dilution of the compound 100-fold. Table 2 summarizes the IC50 values and reversibility for each compound and includes IC50 values obtained from the screens for comparison.

[1] = molecular target: T2, WRN helicase domain fragment (Homo sapiens, UniProt Q14191); test: WRN-hel-f2 protocol qHTS confirmatory (15 compound confirmatory assay); conditions: NA = Not Active
T2 construct: GST (N); made in house
Experimental: The structures of the members of this collection are available in the PubChem portal https://pubchem.ncbi.nlm.nih.gov/. For both the 350,000 small molecule collection and the LOPAC^1280 screens, 3 μL of GST-WRN500-946 or reaction buffer only were dispensed using a solenoid-valve nanoliter dispenser into a black 1536-well plate (Greiner). Twenty three nL of each serially diluted compound (0.08–50 μM for the LOPAC screen and 0.003–114 μM for the larger library screen) or control were added to each well using a Kalypsys pintool equipped with a 1536-pin array. Plates were incubated at room temperature for 15 min, followed by initiation of the reactions via the addition of 1 μL of substrate (100 nM FORKF and 2 mM ATP final concentrations). Plates were transferred to a ViewLux high-throughput CCD imager and fluorescence was measured in kinetic mode using an excitation filter of 525 nm and emission filter of 598 nm.

full-length BLM helicase = molecular target: T3, full-length BLM helicase (Homo sapiens, UniProt P54132); test: Radiometric helicase assay, full-length BLM; conditions: for IC50: full-length BLM 0.1 nM, FORKR 0.5 nM
T3 construct: Full length recombinant WRN [18], BLM [19], and FANCJ [20] proteins were purified from insect cells; made in house; host or cells: insect cells
Experimental: Fifteen μL of reaction buffer was added to a microcentrifuge tube followed by the addition of 1 μL of selected compounds (0.5–100 μM final concentration) or DMSO. One μL of WRN (full length), RECQ1, FANCJ, BLM or control was added to each reaction and incubated at room temperature for 15 min. Three μL of substrate (0.5 nM FORKR and 2 mM ATP final concentrations) were added to all reactions which were incubated at 37°C for 15 min. Reactions were stopped with the addition of 20 μL of 2X STOP dye containing EDTA, glycerol, bromphenol blue and xylene cyanol. Samples were electrophoresed for 1.5 hr at 200 V on a 12% non-denaturing PAGE gel in 1X TBE Buffer.
(§1) Three compounds identified from the cherry-picked set were tested for their effects on WRN exonuclease activity (20 nM) on the FORKR DNA substrate (1 nM) as well as DNA unwinding by full-length BLM (0.1 nM) and FANCJ (5 nM) helicases, which belong to the same Superfamily 2 as WRN [25], to assess their specificity for inhibition of WRN-catalyzed unwinding of the FORKR DNA substrate (0.5 nM). […] Nonetheless, these two compounds were also further tested in cell-based assays to assess their effects on proliferation.
Supplementary file pone.0210525.s005.TIF: S5 Fig Specificity of select WRN inhibitors for inhibition of other human helicases. (A) Quantitation of full-length BLM helicase (0.1 nM) activity on the FORKR DNA substrate (0.5 nM) with increasing concentration of each compound (0–100 μM). (B) Quantitation of full-length FANCJ (5 nM) helicase activity on the FORKR DNA substrate (0.5 nM) with increasing concentration of each compound (0–100 μM). (TIF) Click here for additional data file.

[2] = molecular target: T4, full-length WRN exonuclease activity (Homo sapiens, UniProt Q14191); test: WRN exonuclease activity on radiolabeled FORKR DNA substrate; conditions: WRN 20 nM, FORKR 1 nM; for Inhibition of WRN exonuclease activity: same concentration range as activity against WRN helicase
T4 construct: Full length recombinant WRN [18], BLM [19], and FANCJ [20] proteins were purified from insect cells; made in house; host or cells: insect cells
Experimental: Fig 8 Specificity of selected compounds for inhibiting full-length WRN helicase activity. […] (B) Gel image of full-length WRN (20 nM) exonuclease activity on the radiolabeled FORKR DNA substrate (1 nM) in the presence of increasing concentrations of NCGC00029283-03, NCGC00063279-03 and NCGC00357377-01 (0–200 μM).
as §1

T1 sequence (Q14191 whole entry): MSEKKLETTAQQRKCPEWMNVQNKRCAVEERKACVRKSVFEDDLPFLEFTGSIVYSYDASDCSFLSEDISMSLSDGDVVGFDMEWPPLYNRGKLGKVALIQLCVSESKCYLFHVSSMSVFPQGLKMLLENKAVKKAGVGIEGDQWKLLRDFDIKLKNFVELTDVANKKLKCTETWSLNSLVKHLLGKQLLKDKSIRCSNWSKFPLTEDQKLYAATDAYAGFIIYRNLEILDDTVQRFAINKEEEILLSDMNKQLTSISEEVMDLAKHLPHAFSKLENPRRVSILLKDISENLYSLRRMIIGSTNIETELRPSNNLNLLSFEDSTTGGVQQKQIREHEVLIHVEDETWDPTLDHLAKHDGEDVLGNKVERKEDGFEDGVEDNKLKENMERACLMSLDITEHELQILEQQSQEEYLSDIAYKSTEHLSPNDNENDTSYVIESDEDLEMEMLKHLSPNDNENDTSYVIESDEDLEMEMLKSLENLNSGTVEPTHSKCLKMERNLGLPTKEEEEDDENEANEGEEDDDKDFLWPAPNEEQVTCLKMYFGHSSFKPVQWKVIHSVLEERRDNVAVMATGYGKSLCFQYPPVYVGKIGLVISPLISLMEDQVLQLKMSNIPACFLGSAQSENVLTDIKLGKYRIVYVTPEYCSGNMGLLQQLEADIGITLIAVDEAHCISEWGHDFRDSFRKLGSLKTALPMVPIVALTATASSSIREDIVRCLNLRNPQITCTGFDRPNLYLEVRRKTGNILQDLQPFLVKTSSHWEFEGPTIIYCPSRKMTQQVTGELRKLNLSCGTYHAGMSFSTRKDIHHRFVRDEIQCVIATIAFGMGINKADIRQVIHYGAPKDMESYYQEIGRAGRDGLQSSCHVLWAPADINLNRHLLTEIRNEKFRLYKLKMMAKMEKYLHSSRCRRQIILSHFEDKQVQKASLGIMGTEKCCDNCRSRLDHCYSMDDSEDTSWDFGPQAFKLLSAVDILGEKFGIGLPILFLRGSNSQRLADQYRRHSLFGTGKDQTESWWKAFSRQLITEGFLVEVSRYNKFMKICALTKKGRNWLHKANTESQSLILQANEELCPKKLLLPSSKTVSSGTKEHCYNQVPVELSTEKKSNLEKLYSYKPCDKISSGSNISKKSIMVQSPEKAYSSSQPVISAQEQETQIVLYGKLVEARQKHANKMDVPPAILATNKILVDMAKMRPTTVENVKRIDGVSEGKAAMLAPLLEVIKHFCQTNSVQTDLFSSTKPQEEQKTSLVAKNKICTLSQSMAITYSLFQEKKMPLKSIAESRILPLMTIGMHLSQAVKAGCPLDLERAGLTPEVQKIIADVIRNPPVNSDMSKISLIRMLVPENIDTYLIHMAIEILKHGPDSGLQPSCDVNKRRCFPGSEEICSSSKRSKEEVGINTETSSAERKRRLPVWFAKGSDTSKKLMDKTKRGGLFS
T4 sequence (Q14191 whole entry): as above
T2 sequence (Q14191 500-946): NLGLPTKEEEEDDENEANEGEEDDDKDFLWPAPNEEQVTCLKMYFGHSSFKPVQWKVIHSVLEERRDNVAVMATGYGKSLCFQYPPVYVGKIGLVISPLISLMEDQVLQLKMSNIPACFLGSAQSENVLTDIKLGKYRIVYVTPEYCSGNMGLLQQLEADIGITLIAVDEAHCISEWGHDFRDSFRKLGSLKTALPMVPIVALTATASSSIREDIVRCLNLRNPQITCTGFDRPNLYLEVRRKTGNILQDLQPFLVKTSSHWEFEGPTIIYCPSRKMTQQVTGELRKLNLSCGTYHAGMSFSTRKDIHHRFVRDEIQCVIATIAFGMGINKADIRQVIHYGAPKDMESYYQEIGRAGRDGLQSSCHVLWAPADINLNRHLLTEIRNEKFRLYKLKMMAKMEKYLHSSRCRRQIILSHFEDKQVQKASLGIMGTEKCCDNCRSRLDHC
T3 sequence (P54132 whole entry): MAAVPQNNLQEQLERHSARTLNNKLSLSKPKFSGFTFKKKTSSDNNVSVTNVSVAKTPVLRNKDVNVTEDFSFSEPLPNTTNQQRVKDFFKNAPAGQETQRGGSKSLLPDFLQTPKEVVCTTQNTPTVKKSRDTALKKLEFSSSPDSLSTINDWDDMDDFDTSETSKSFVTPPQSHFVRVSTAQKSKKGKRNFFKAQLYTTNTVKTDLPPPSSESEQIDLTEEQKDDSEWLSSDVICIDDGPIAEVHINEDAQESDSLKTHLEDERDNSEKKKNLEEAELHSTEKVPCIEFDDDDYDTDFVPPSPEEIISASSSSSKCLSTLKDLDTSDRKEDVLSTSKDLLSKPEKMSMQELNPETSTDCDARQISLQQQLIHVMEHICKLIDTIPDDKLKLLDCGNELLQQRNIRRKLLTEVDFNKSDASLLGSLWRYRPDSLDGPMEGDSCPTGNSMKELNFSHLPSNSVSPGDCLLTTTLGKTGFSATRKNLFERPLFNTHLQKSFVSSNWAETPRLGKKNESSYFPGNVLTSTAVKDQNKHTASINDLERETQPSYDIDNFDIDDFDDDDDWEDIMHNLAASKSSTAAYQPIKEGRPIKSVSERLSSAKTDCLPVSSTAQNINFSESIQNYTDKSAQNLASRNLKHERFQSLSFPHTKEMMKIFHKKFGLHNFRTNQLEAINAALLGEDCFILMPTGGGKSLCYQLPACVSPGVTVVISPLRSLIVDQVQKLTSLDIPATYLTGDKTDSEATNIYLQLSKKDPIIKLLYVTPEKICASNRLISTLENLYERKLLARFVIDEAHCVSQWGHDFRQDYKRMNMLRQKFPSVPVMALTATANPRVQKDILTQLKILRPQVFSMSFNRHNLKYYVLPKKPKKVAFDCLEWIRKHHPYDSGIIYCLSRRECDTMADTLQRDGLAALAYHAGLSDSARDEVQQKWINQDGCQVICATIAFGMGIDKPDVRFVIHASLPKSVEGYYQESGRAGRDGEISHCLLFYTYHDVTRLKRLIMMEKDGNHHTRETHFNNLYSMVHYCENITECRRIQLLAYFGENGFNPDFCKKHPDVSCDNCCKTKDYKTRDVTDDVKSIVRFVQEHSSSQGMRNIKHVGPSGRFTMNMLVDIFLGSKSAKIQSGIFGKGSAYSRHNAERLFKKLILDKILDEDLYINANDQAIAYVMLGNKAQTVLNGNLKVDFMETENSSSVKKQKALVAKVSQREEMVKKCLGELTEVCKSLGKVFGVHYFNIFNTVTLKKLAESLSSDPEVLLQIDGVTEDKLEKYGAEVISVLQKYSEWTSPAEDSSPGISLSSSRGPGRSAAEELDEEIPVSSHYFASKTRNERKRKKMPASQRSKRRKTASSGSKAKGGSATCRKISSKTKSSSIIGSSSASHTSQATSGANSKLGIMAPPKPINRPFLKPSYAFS

Cc1ccc(-c2csc(NS(=O)(=O)c3cccc(F)c3)n2)o1 [MLS002251300-02]
Reversibility (full-length WRN helicase): ++
IC50 [1]: 20 µM
IC50 for WRN helicase inhibition fold less than that observed for BLM (full-length BLM helicase; WRN vs BLM): 2.5 fold
IC50 (full-length BLM helicase): 13 ± 2.6 µM
Inhibition of WRN exonuclease activity at 200 μM [2]: some ability to inhibit
Inhibition of WRN exonuclease activity [2]: unable to inhibit

COc1ccc2nc(O)c(-c3noc(-c4ccc(F)cc4)n3)cc2c1 [NCGC00029283-02]
Reversibility (full-length WRN helicase): ++
Reversibility of inhibition (in words) (full-length WRN helicase): at least partially reversible
IC50 [1]: 0.45 µM
IC50 (full-length BLM helicase): 12.5 ± 1.8 µM
Inhibition of WRN exonuclease activity at 200 μM [2]: some ability to inhibit
Inhibition of WRN exonuclease activity [2]: unable to inhibit

COc1ccc2nc(O)c(-c3noc(-c4ccccc4)n3)cc2c1 [NCGC00063279-02]
Reversibility (full-length WRN helicase): +++
Reversibility of inhibition (in words) (full-length WRN helicase): at least partially reversible
IC50 [1]: 2.5 µM
IC50 (full-length BLM helicase): 46.1 µM
Inhibition of WRN exonuclease activity at 200 μM [2]: some ability to inhibit
Inhibition of WRN exonuclease activity [2]: unable to inhibit
